Patent US20250230193A1, “CYCLIC COMPOUND HAVING SELECTIVE KRAS INHIBITORY EFFECT ON HRAS AND NRAS” (CHUGAI SEIYAKU KABUSHIKI KAISHA, priority 2022, published 2025)
Where a SMILES comes first, the peptide text is derived from it. Bridges are numbered along the chain shown (N, C = ends). [ ]: non-standard residue; d: D form. The star is where a group is joined. hPhe(3-Cl-4-CF3) = N[C@@H](CCc1ccc(C(F)(F)F)c(Cl)c1)C(=O)O; NEtPhe(4-CF3) = CCN[C@@H](Cc1ccc(C(F)(F)F)cc1)C(=O)O; NMeGly(cPent) = CN[C@H](C(=O)O)C1CCCC1; NMeD = CN[C@@H](CC(=O)O)C(=O)O; NMeL = CN[C@@H](CC(C)C)C(=O)O; Morpholide = C1CN(*)CCO1; NMeA = CN[C@@H](C)C(=O)O; Aze = O=C(O)[C@@H]1CCN1; Ac3c = NC1(C(=O)O)CC1; Sar = CNCC(=O)O

Key:
[1] = target: GDP-bound NRAS wild-type protein (Homo sapiens, UniProt P01111); experiment: Binding to NRAS by surface plasmon resonance (SPR), Single Cycle Kinetics; details: SPR
[2] = target: GDP-bound HRAS wild-type protein (Homo sapiens, UniProt P01112); experiment: Binding to HRAS by surface plasmon resonance (SPR), Single Cycle Kinetics; details: SPR
[3] = KD ratio, GDP-bound NRAS wild-type vs GDP-bound KRAS wild-type
[4] = KD ratio, GDP-bound HRAS wild-type vs GDP-bound KRAS wild-type

GDP-bound HRAS wild-type protein, sequence (P01112 whole entry): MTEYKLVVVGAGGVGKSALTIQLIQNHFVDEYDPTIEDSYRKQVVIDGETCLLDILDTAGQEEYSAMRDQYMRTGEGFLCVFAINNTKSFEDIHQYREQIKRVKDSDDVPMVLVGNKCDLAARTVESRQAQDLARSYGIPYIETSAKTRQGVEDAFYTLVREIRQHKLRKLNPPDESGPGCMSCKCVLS
GDP-bound NRAS wild-type protein, sequence (P01111 whole entry): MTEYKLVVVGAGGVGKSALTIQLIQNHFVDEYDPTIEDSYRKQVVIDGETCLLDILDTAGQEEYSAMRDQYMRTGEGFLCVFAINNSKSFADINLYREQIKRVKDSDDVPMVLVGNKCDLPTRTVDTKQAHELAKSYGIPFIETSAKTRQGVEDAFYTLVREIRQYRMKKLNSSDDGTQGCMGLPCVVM

Structure (SMILES): CCC[C@H]1C(=O)N[C@@H]([C@@H](C)CC)C(=O)N(C)CC(=O)N(C)[C@H]2C/C=C\CCN(C2=O)[C@@H](Cc2ccc(C)cc2)C(=O)N(C)CC(=O)N[C@@H](CCc2cc(F)c(C(F)(F)F)c(F)c2)C(=O)N2C[C@H](OCC)C[C@H]2C(=O)N(C)C2(CCC2)C(=O)N(C)[C@@H](C2CCCC2)C(=O)N(C)[C@H](C(=O)N2CCCC2)CC(=O)N1C [PP3121, (2S,8S,12R,14S,20S,23S,27S,30S,36S,38Z)-20-cyclopentyl-8-[2-[3,5-difluoro-4-(trifluoromethyl)phenyl]ethyl]-12-ethoxy-4,16,19,22,26,32,35-heptamethyl-30-[(1S)-1-methylpropyl]-27-propyl-2-(p-tolylmethyl)-23-(pyrrolidine-1-carbonyl)spiro[1,4,7,10,16,19,22,26,29,32,35-undecazatricyclo[34.5.1.0^10,14]dotetracont-38-ene-17,1′-cyclobutane]-3,6,9,15,18,21,25,28,31,34,42-undecone]
- NRAS/KRAS (ratio of KD value with respect to GDP-bound NRAS wild-type protein to KD value with respect to KRAS) ([1]; KD ratio NRAS/KRAS, GDP-bound wild-type proteins): A (a compound having 10 or more and less than 20 is denoted as A)
- HRAS/KRAS (ratio of KD value with respect to GDP-bound HRAS wild-type protein to KD value with respect to KRAS) ([2]; KD ratio HRAS/KRAS, GDP-bound wild-type proteins): A (a compound having 10 or more and less than 20 is denoted as A)

Structure (SMILES): CC[C@H](C)[C@@H]1NC(=O)[C@H](CC(C)C)N(C)C(=O)C[C@@H](C(=O)N2CCOCC2)N(C)C(=O)[C@H](C2CCCC2)N(C)C(=O)C2(CC2)NC(=O)[C@@H]2CCCN2C(=O)[C@H](CCc2ccc(C(F)(F)F)c(Cl)c2)NC(=O)CN(C)C(=O)[C@H](Cc2ccc(C(F)(F)F)cc2)N(CC)C(=O)[C@@H]2CCN2C(=O)[C@H](C)N(C)C1=O [PP0220] ([NMeL]I[NMeA][Aze][NEtPhe(4-CF3)][Sar][hPhe(3-Cl-4-CF3)]P[Ac3c][NMeGly(cPent)][NMeD]-Morpholide; lactam N-11)
- NRAS/KRAS (ratio of KD for GDP-bound NRAS wild-type to KD for KRAS) ([1]; KD ratio NRAS/KRAS): C (A compound having a KD ratio of 0.1 or more and less than 3 is denoted as C)
- HRAS/KRAS (ratio of KD for GDP-bound HRAS wild-type to KD for KRAS) ([2]; KD ratio HRAS/KRAS): C (A compound having a KD ratio of 0.1 or more and less than 3 is denoted as C)

Structure (SMILES): CCO[C@@H]1C[C@H]2C(=O)NC3(CCCC3)C(=O)N(C)[C@@H](C3CCCC3)C(=O)N(C)[C@H](C(=O)N(C)C)CC(=O)N(C)[C@@H](C)C(=O)N[C@@H]([C@@H](C)CC)C(=O)N(C)CC(=O)N(C)[C@H]3C/C=C\CCN(C3=O)[C@@H](Cc3ccc(C(F)(F)F)cc3)C(=O)N(C)CC(=O)N[C@@H](CCc3cc(F)c(C(F)(F)F)c(F)c3)C(=O)N2C1 [PP1104]
- NRAS/KRAS (ratio of KD value with respect to NRAS to KD value with respect to KRAS) [1, 3]: A (a compound having 10 or more and less than 20 is denoted as A)
- HRAS/KRAS (ratio of KD value with respect to HRAS to KD value with respect to KRAS) [2, 4]: A (a compound having 10 or more and less than 20 is denoted as A)

Structure (SMILES): CC[C@@H]1C[C@H]2C(=O)NC3(CCC3)C(=O)N(C)[C@@H](C3CCCC3)C(=O)N(C)[C@H](C(=O)N(C)C)CC(=O)N(C)[C@@H](CC(C)C)C(=O)N[C@@H]([C@@H](C)CC)C(=O)N(C)CC(=O)N(C)[C@H]3C/C=C\CCN(C3=O)[C@@H](Cc3ccc(C)cc3)C(=O)N(C)CC(=O)N[C@@H](CCc3cc(F)c(C(F)(F)F)c(F)c3)C(=O)N2C1 [PP2220]
- NRAS/KRAS (ratio of KD value with respect to NRAS to KD value with respect to KRAS) ([1]; GDP-bound NRAS wild-type vs GDP-bound KRAS wild-type): A (a compound having 10 or more and less than 20 is denoted as A)
- HRAS/KRAS (ratio of KD value with respect to HRAS to KD value with respect to KRAS) ([2]; GDP-bound HRAS wild-type vs GDP-bound KRAS wild-type): A (a compound having 10 or more and less than 20 is denoted as A)

Structure (SMILES): CCCN(C)C(=O)[C@@H]1CC(=O)N(C)[C@@H](COC)C(=O)N[C@@H]([C@@H](C)CC)C(=O)N(C)CC(=O)N(C)[C@H]2C/C=C\CCN(C2=O)[C@@H](Cc2ccc(C(F)(F)F)cc2)C(=O)N(C)CC(=O)N[C@@H](CCc2cc(F)c(C(F)(F)F)c(F)c2)C(=O)N2C[C@H](OCC)C[C@H]2C(=O)NC2(CC(C)(C)C2)C(=O)N(C)[C@@H](C2CCCC2)C(=O)N1C [PP1672]
- NRAS/KRAS (ratio of KD value for NRAS to KD value for KRAS) [1, 3]: A (a compound having 10 or more and less than 20 is denoted as A)
- HRAS/KRAS (ratio of KD value for HRAS to KD value for KRAS) [2, 4]: A (a compound having 10 or more and less than 20 is denoted as A)
